As usually defined, the IC50 is the midpoint of a concentration-inhibition curve.

Assay [1] has as its system IgM antibody production from murine spleen B cells. The assay can be described thus: Effects on the IgM antibody production from murine spleen cells (LPS + IL4). It is filed as cell-based, BALB/c mouse. The settings on record: Mus musculus, B-cell, 168 h; spleen B cells, LPS 10 μg/ml, IL4 100 U/ml, 7 days, enzyme-immunoassay; read-out: IC50 value, IgM antibody production. Here is the method: (§1) Using murine spleen B cells, the effects of the compound of the formula (I) on the IgGl, IgM and IgE antibody production induced by the stimulation by LPS (lipopolysaccharide; Product No. 520.02051, manufactured by Wako Junyaku) and IL4 (interleukin 4), were studied. Namely, spleen cells of a BALB/c mouse were treated with a murine anti-Thy-1 antibody (obtained from Chiba University) and a rabbit complement (Product No. 3051, manufactured by cedarlane) to remove T cells, and 3×10^5 spleen B cells were cultured for 7 days together with 10 μg/ml of LPS, 100 U/ml of mouse-recombinant IL4 (Product No. MIL-4C, manufactured by Genzyme) and each concentration (from […]) of the compound of the formula (I) on a microplate with 96 wells by a 10% FCS-RPMI solution (in an incubator, 5% CO2, at 37° C.).
(§2) For the basic procedure of this test, reference was made to The Journal of Immunology, Vol. 136, p. 4538, (1986).
(§3) The amount of each antibody in the cell culture supernatant hereby obtained, was measured by the following enzyme-immunoassay. Firstly, on a microplate with 96 wells, 1 μg/ml of a rabbit anti-mouse IgGl antibody (Product No. 36243, manufactured by Cappel), 1 μg/ml of a goat anti-mouse IgM antibody (Product No. 0611-0201, manufactured by Cappel) or 10 μg/ml of a rat anti-mouse IgE monoclonal antibody (Product No. LO-ME-2, manufactured by Experimental Immunology) was coated (50 μl/well, at room temperature for 60 minutes), and then a nonspecific bond was blocked by a 0.1% bovine serum albumin-containing 10 mM sodium phosphate buffer (pH 7.2) (at room temperature for 60 minutes). Then, the above-mentioned cell culture supernatant or its diluted solution was added in an amount of 50 μl/well and reacted at room temperature for 60 minutes. Further, an alkaline phosphatase-labeled rabbit anti-mouse IgGl antibody (Product No. 61-0122, manufactured by Zymet) diluted 1,000 times, an alkaline phosphatase-labeled rabbit anti-mouse IgM antibody (Product No. 61-6822, manufactured by Zymet) diluted 2,000 times, or an alkaline phosphatase-labeled goat anti-mouse IgE antibody (Product No. PA-284, manufactured by Binding Site) diluted 500 times was added in an amount of 50 μl/well and reacted at room temperature for 60 minutes. 100 μl/well of a 10% diethanol amine buffer solution (pH 9.8) containing p-nitrophenyl phosphate as an enzyme substrate, was reacted, and the absorbance at 405 nm was measured. The amount of each antibody was calculated from the calibration curve of each standard antibody, and the IC50 value of the compound of the formula (I) on the antibody production was calculated using as the control value a value obtained in the absence of the compound of the formula (I).

For assay [2], the system named is murine bone mallow cells. The assay can be described thus: Effects on the murine bone mallow cells (proliferation, 3H-TdR uptake). The settings on record: Mus musculus, bone marrow cells; 20% L929 culture supernatant, 48 hours, 3H-TdR uptake; Tables 12-15; read-out: IC50 value, c (murine bone mallow cells). It is filed as cell-based, BALB/c mouse. The protocol:
Bone mallow cells were removed from the femur of a BALB/c mouse and suspended in a 10% FCS-RPMI solution. The cell suspension was put into a plastic Petri dish having a diameter of 10 cm and left to stand still (in an incubator, 5% CO2, at 37° C.). Two hours later, only floating cells were recovered, and adhesion cells were removed. 1×10^5 floating cells were cultured for 48 hours together with a 20% culture supernatant of L929 fibroblastoma and the compound of the formula (I) on a microplate with 96 wells by a 10% FCS-RPMI solution (in an incubator, 5% CO2, at 37° C.). Then, 0.5 μCi of ^3 H-TdR was added thereto, and the mixture was further cultured for 4 hours. Then, cells were collected by a cell harvester, and the radioactivity (dpm) of ^3 H-TdR uptaken into the cells, was measured. Such measured amounts of ^3 H-TdR uptaken into the cells were used as indices for the proliferation of bone mallow cells, and the radioactivity at each concentration (from 0.001 to 1,000 μg/ml) of the compound of the formula (I) was compared with the control value where the L929 culture supernatant was added alone, to calculate the IC50 value. In these Tables 12 and 13, the results of the bone mallow cells are shown by (c).
For the basic procedure of this test, reference was made to Seikagakujikken Koza compiled by Japan Biochemistry Association, Vol. 5, p. 266-270 (published by Tokyo Kagaku Dojin in 1986).

Assay [3] concerns murine thymocytes. The assay can be described thus: Effects on the mitogenic response by murine thymocytes (Con A stimulation, 3H-TdR uptake). It is filed as cell-based, BALB/c murine. Particulars: Mus musculus, Thymocyte; BALB/c thymocytes, Con A 5 μg/ml, 48 hours, 3H-TdR uptake; read-out: IC50 value, a (mitogenic response of murine thymocytes). The protocol:
Using BALB/c murine thymocytes, the effect of the compound of the formula (I) on the mitogenic response of lymphocytes to the stimulation by concanavalin A (hereinafter referred to simply as Con A, Product No. L-1000, manufactured by Vector Laboratories) was studied. Namely, 4×10^5 murine thymocytes were cultured for 48 hours on a microplate with 96 wells in a RPMI1640 solution containing 10% of a fetal bovine serum (hereinafter referred to simply as a 10% FCS-RPMI solution) together with Con A (5 μg/ml) and the compound of the formula (I) (in an incubator, 5% CO2, at 37° C.). Then, 0.5 μCi of ^3 H-thymidine (hereinafter referred to simply as ^3 H-TdR) was added thereto, and the mixture was further cultured for 4 hours. Then, cells were collected by a cell harvester, and the radioactivity (dpm) of ^3 H-TdR uptaken into cells was measured. Such measured amounts of ^3 H-TdR uptaken into the cells were used as indices of the mitogenic response of the murine thymocytes, and the radioactivity at each concentration (from 0.001 to 1,000 μg/ml) of the compound of the formula (I) was compared with the control value treated solely by Con A, to calculate IC50 value. In these Tables 12 and 13, the results of murine thymocytes are shown by (a).
For the basic procedure of this test, reference was made to Selected methods in cellular immunology, p. 144-146 (translated by Katsuyuki Imai et al., published by Rikogakusha, (1982)).

For assay [4], the system named is IgE antibody production from murine spleen B cells. The assay can be described thus: Effects on the IgE antibody production from murine spleen cells (LPS + IL4). It is filed as cell-based, BALB/c mouse. Particulars: Mus musculus, B-cell, 168 h; spleen B cells, LPS 10 μg/ml, IL4 100 U/ml, 7 days, enzyme-immunoassay; read-out: IC50 value, IgE antibody production. Here is the method: as §1, §2, §3

The subject of assay [5] is IgGl antibody production from murine spleen B cells. The assay can be described thus: Effects on the IgGl antibody production from murine spleen cells (LPS + IL4). It is filed as cell-based, BALB/c mouse. Particulars: Mus musculus, B-cell, 168 h; spleen B cells, LPS 10 μg/ml, IL4 100 U/ml, 7 days, enzyme-immunoassay; read-out: IC50 value, IgGl antibody production. The protocol:
as §1, §2, §3

In assay [6] the test system is murine mixed lymphocyte reaction (spleen cells of BALB/c and C57BL/6 mice). Description: Effects on the murine mixed lymphocyte reaction (3H-TdR uptake). Format: cell-based. The settings on record: Mus musculus, BALB/c + C57BL/6 spleen cells, 48 hours, read-out: IC50 value, b (murine mixed lymphocyte reaction). The protocol:
Using spleen cells of BALB/c and C57BL/6 mice, the effect of the compound of the formula (I) on the murine mixed lymphocyte reaction in both sides, was studied. Namely, spleen cells of both types of mice were mixed in an equal amount of 5×10^5 cells each, and the mixed cells were cultured together with the compound of the formula (I) for 48 hours on a microplate with 96 wells by a 10% FCS-RPMI solution (in an incubator, 5% CO2, at 37° C.). Then, 0.5 μCi of ^3 H-TdR was added thereto, and the mixture was further cultured for from 16 to 18 hours. Then, cells were collected by a cell harvester, and the radioactivity (dpm) of ^3 H-TdR uptaken into the cells, was measured. Such measured amounts of ^3 H-TdR uptaken into the cells were used as indices for the mixed lymphocyte reaction, and the radioactivity at each concentration (from 0.001 to 1,000 μg/ml) of the compound of the formula (I) was compared with the non-treated control value, to calculate the Ic50 value.
For the basic procedure for this test, reference was made to Selected methods in cellular immunology, p. 147-149 (translated by Katsuyuki Imai et al., published by Rikogakusha, (1982)).

Converted amounts (≈) assume the structure as drawn.

As to `C[C@]1(O)C=C[C@H]2CO[C@@H]1O2` [Compound 28], the IC50 in assay [1] was determined as 590 µg/mL; in assay [2] it was 150 µg/mL (≈ 1060 µM); in assay [3] it was 76 µg/mL (≈ 535 µM); in assay [4] it was 280 µg/mL; in assay [5], 380 µg/mL; in assay [6] it was 280 µg/mL.
For the compound `CCCC[C@]1(O)C=C[C@H]2CO[C@@H]1O2` [Compound 30], the IC50 is 150 µg/mL in assay [1]; 190 µg/mL (≈ 1030 µM) in assay [2]; 110 µg/mL (≈ 597 µM) in assay [3]; 24 µg/mL in assay [4]; 190 µg/mL in assay [5]; 540 µg/mL in assay [6].
For `CCCC#C[C@]1(O)C=C[C@H]2CO[C@@H]1O2` [Compound 31], the half-maximal inhibitory concentration (IC50) in assay [1] stood at 10 µg/mL; in assay [2], 520 µg/mL (≈ 2680 µM); in assay [3] it was 180 µg/mL (≈ 927 µM); in assay [4] it was 140 µg/mL; in assay [5], 1.5 µg/mL; in assay [6], 560 µg/mL.
As to `CC(=O)O[C@@]1(C)C=C[C@H]2CO[C@@H]1O2` [Compound 32, 2-O-acetyl-1,6-anhydro-3,4-dideoxy-2-C-methyl-β-D-threo-hex-3-enopyranose], the IC50 was 350 µg/mL in assay [1]; 540 µg/mL (≈ 2930 µM) in assay [2]; 320 µg/mL (≈ 1740 µM) in assay [3]; 2.8 µg/mL in assay [4]; 400 µg/mL in assay [5]; 540 µg/mL in assay [6].
With `CCCCO[C@H]1C=C[C@H]2CO[C@@H]1O2` [Compound 40], the concentration for half-maximal inhibition (IC50) in assay [1] is 110 µg/mL; in assay [2], > 1000 µg/mL; in assay [3], 160 µg/mL (≈ 868 µM); in assay [4], 0.0026 µg/mL; in assay [5], 0.067 µg/mL; in assay [6] it was > 1000 µg/mL.
Consider `Cc1ccc(S(=O)(=O)O[C@H]2C=C[C@H]3CO[C@@H]2O3)cc1` [Compound 46, 1,6-anhydro-3,4-dideoxy-2-O-(p-toluene)sulfonyl-β-D-threo-hex-3-enopyranose], for which the 50% inhibitory concentration (IC50) was 0.35 µg/mL in assay [1]; 190 µg/mL (≈ 673 µM) in assay [2]; 110 µg/mL (≈ 390 µM) in assay [3]; 0.32 µg/mL in assay [4]; 0.25 µg/mL in assay [5]; 22 µg/mL in assay [6].
Regarding `C1=C[C@H]2CO[C@H](O2)[C@H]1OCc1ccccc1` [Compound 48], the concentration for half-maximal inhibition (IC50) in assay [1] was 35 µg/mL; in assay [2], 430 µg/mL (≈ 1970 µM); in assay [3] it was 120 µg/mL (≈ 550 µM); in assay [4] it was 41 µg/mL; in assay [5], 34 µg/mL; in assay [6] it was > 1000 µg/mL.
With `O=C(CCCCCCCCCCCCCCCO)O[C@H]1C=C[C@H]2CO[C@@H]1O2` [Compound 49, 1,6-anhydro-3,4-dideoxy-2-O-(16-hydroxy)hexadecanoyl-β-D-threo-hex-3-enopyranose], the IC50 in assay [1] was 0.43 µg/mL; in assay [2], 41 µg/mL (≈ 107 µM); in assay [3], 11 µg/mL (≈ 28.8 µM); in assay [4], < 0.1 µg/mL; in assay [5], < 0.1 µg/mL; in assay [6], 32 µg/mL.
Take `Cc1ccccc1C(=O)O[C@H]1C=C[C@H]2CO[C@@H]1O2` [Compound 50]: the half-inhibitory concentration (IC50) is < 0.001 µg/mL in assay [1]; 380 µg/mL (≈ 1540 µM) in assay [2]; 52 µg/mL (≈ 211 µM) in assay [3]; < 0.001 µg/mL in assay [4]; < 0.001 µg/mL in assay [5]; 180 µg/mL in assay [6].
Turning to `O[C@@H]1C=C[C@H]2CO[C@@H]1O2` [Compound 103, 1,6-anhydro-3,4-dideoxy-β-D-erythro-hex-3-enopyranose], the IC50 in assay [1] was 1.3 µg/mL; in assay [2], > 1000 µg/mL; in assay [3] it was 780 µg/mL (≈ 6090 µM); in assay [4], 2.1 µg/mL; in assay [5], 0.45 µg/mL; in assay [6], > 1000 µg/mL.
On to `CCCCCCCCCCCCCCCC(=O)O[C@@H]1C=C[C@H]2CO[C@@H]1O2` [Compound 109], for which the IC50 in assay [1] is 31 µg/mL; in assay [2], > 1000 µg/mL; in assay [3] it was 550 µg/mL (≈ 1500 µM); in assay [4], < 0.1 µg/mL; in assay [5], < 0.1 µg/mL; in assay [6], 740 µg/mL.
